From ChEMBL document CHEMBL5108021, “Discovery of 3-pyrazolyl-substituted pyrazolo[1,5-a]pyrimidine derivatives as potent TRK inhibitors to overcome clinically acquired resistance” (Eur J Med Chem, 2022) come the findings set out here.

Test [1] deals with BaF3. The experiment in a line: Antitumor activity against mouse BaF3 cells expressing […]-wild type TRKA xenografted in BALB/c mouse assessed as inhibition of tumor growth at 30 mg/kg, po bid for 11 to 14 days by microcaliper analysis. The following applies: time 11-14 day, read-out: TGI. The test is classed as functional.
For test [2], the system named is BaF3. The experiment in a line: animal or person. The following applies: Mus musculus, BaF3, po, read-out: TGI.

On to `O=C(Nc1cnn2ccc(N3CCC[C@@H]3c3cc(F)ccc3F)nc12)N1CC[C@H](O)C1` [LAROTRECTINIB], for which the inhibition in vivo at 30 mg/kg in the test with BaF3 [1] came out at 74%. With `C[C@@H]1CCc2ncc(F)cc2[C@H]2CCCN2c2ccn3ncc(c3n2)C(=O)N1` [SELITRECTINIB], the inhibition in vivo at 100 mg/kg in the test with BaF3 [2] worked out at 64%.
